{"source": "patent US10201530B2", "about": "“Treatment of BRCA1-defective cancer or resistant cancers” (City of Hope, priority 2014, dated 2019)", "key": {"KB-Gem": {"tested_on": "KB-Gem", "assay": "Cytotoxicity, KB-Gem cells", "type": "cell-based, human", "details": "Homo sapiens, gemcitabine-resistant, read-out: IC50, mean ± SEM", "protocol": "(§1) All cell lines were acquired from the American Type Culture Collection (Manassas, Va., USA). Cells were maintained in RPMI 1640 medium (Mediatech) with 10% fetal bovine serum, 2 mM glutamine, and 100 U of penicillin and 100 μg of streptomycin per ml of medium (Sigma) at 37° C. in 5% CO2. To isolate HCC1437+BRCA1 cells, parental HCC1937 cells were transfected with pcDNA3.1 plasmid expressing full-length BRCA1 cDNA. Stable transfectant clones were selected and used for drug sensitivity assays. For stable transfection, cells at 30-40% confluence were incubated overnight with […] of plasmid DNA, using FUGENE® 6 transfectin reagent (Roche Molecular Biochemical, Monza, Italy) according to the manufacturer's instructions. Cells were then selected in puromycin (1 μg/ml) (Invitrogen life Technologies, La Jolla, Calif., USA.) After 20 to 30 days, viable puromycin-resistant colonies from HCC1937 transfections were expanded and screened. The clones that stably expressed […] and retained growth potential were assayed for BRCA1 expression by Western blot analysis. By Western blot analysis, we evaluated the restoration of BRCA1 expression in the puromycin-resistant cDNA/transfectant cells.\n(§2) The MTT cytotoxicity assay was performed by incubating with MTT and monitoring the MTT formazan formed by viable cells with a microplate reader at a wavelength of 560 nm; the survival, ratio was determined using the formula: (Atest−Ablank)/(Acontrol−Ablank)×100%. The cytotoxicity was determined in 96-well plates using the semiautomatic fluorescence-based Digital Imaging Microscopy System (DIMSCAN). DIMSCAN uses digital imaging microscopy to quantify viable cells, which selectively accumulate FDA (fluorescein diacetate; Alfa Aesar, Ward Hill, Mass.). DIMSCAN is capable of measuring cytotoxicity over a 4 log dynamic range by quantifying total fluorescence per well (which is proportional to the number of viable cells) after elimination of the background fluorescence by digital thresholding and eosin Y (Mallinckrodt Baker, Center Valley, Pa.) quenching. Cells were seeded into 96-well plates in 100 μL of complete medium at 2,000 to 5,000 cells per well depending on cell line growth rate. After overnight incubation, test compound was added to each well at various concentrations in 50 μL of culture medium. After incubation with the drugs for 96 hours at 37° C., FDA (final concentration: […]) and eosin Y [final concentration: 0.1% (w/v)] were added to each well and the cells were incubated for an additional 20 minutes at 37° C. Total fluorescence per well was then measured using DIMSCAN, and the results were expressed as the ratio of the fluorescence in treated wells to the fluorescence in untreated wells (survival fraction)."}, "TOV112D": {"tested_on": "TOV112D", "assay": "Cytotoxicity, TOV112D cells", "type": "cell-based, human", "details": "Homo sapiens, read-out: IC50, mean ± SEM", "protocol": "as §1, §2"}, "[1]": {"tested_on": "multiple human cancer cell lines", "details": "in most cases; cited from earlier work"}, "HCC1937 + BRCA1": {"tested_on": "HCC1937 + BRCA1", "assay": "Cytotoxicity, HCC1937+BRCA1 cells", "type": "cell-based, human", "details": "Homo sapiens; HCC1937 + BRCA1, triple negative; COH29 72 h", "protocol": "as §1\n(§3) The MTT cytotoxicity assay was performed by incubating with MTT and monitoring the MTT formazan formed by viable cells with a microplate reader at a wavelength of 560 nm; the survival, ratio was determined using the formula: (Atest−Ablank)/(Acontrol−Ablank)×100%. The cytotoxicity was determined in 96-well plates using the semiautomatic fluorescence-based Digital Imaging Microscopy System (DIMSCAN). DIMSCAN uses digital imaging microscopy to quantify viable cells, which selectively accumulate FDA (fluorescein diacetate; Alfa Aesar, Ward Hill, Mass.). DIMSCAN is capable of measuring cytotoxicity over a 4 log dynamic range by quantifying total fluorescence per well (which is proportional to the number of viable cells) after elimination of the background fluorescence by digital thresholding and eosin Y (Mallinckrodt Baker, Center Valley, Pa.) quenching. […]"}, "SKBR3": {"tested_on": "SKBR3", "assay": "Cytotoxicity, SKBR3 cells", "type": "cell-based, human", "details": "Homo sapiens, SK-BR-3; SKBR3, ER− PR(−) HER2+", "protocol": "as §1, §3"}, "MCF-7": {"tested_on": "MCF-7", "assay": "Cytotoxicity, MCF-7 cells", "type": "cell-based, human", "details": "Homo sapiens, MCF7; MCF-7, ER+ PR(+)", "protocol": "as §1, §3"}, "HCC1937+BRCA1 tumors": {"tested_on": "HCC1937+BRCA1 tumors", "assay": "Orthotopic tumor explant model, HCC1937+BRCA1", "type": "in vivo", "details": "HCC1937+BRCA1 tumors in NSG mice, daily oral 400 mg/kg; p=0.1577", "protocol": "Experiments in mice were conducted under a protocol approved by the IACUC of City of Hope. Because HCC1937 and HCC1937+BRCA1 cells from slow-growing tumors, they were implanted using MATRIGEL™ (Becton-Dickinson Biosciences). To establish tumors 4×10^6 cells in 200 μL serum-free medium containing 50% MATRIGEL™ were injected into the mammary fat pads around the inguinal area of a pair of 8 week old female NSG mice. Once the initial tenors reached 13 mm in diameter, they were dissected out minced into 3 mm pieces and implanted into the inguinal area of the mammary fat pads of the experimental mice Tumors were measured over a 28-day period, and for each time point, the student t-test was used to determine the statistical significance between daily gavage with 400 mg/kg COH29 in 30% solutol and corresponding vehicle control. The p value less than 0.05 (2 sides) was considered to indicate statistical significance"}, "MDA-MB-231": {"tested_on": "MDA-MB-231", "assay": "Cytotoxicity, MDA-MB-231 cells", "type": "cell-based, human", "details": "Homo sapiens; MDA-MB-231, TNBC; read-out: IC50, mean ± SEM", "protocol": "as §1, §2"}, "[2]": {"details": "more potent than HU, ref (6); cited from earlier work"}, "PARP1": {"molecular_target": "T1, PARP1 (Homo sapiens, UniProt P09874)", "T1 construct": "endogenous in cells; host or cells: HCC1937, HCC1937+BRCA1, UWB1.289, UWB1.289+BRCA1 (human breast / ovarian cancer lines)", "T1 sequence (P09874 whole entry)": "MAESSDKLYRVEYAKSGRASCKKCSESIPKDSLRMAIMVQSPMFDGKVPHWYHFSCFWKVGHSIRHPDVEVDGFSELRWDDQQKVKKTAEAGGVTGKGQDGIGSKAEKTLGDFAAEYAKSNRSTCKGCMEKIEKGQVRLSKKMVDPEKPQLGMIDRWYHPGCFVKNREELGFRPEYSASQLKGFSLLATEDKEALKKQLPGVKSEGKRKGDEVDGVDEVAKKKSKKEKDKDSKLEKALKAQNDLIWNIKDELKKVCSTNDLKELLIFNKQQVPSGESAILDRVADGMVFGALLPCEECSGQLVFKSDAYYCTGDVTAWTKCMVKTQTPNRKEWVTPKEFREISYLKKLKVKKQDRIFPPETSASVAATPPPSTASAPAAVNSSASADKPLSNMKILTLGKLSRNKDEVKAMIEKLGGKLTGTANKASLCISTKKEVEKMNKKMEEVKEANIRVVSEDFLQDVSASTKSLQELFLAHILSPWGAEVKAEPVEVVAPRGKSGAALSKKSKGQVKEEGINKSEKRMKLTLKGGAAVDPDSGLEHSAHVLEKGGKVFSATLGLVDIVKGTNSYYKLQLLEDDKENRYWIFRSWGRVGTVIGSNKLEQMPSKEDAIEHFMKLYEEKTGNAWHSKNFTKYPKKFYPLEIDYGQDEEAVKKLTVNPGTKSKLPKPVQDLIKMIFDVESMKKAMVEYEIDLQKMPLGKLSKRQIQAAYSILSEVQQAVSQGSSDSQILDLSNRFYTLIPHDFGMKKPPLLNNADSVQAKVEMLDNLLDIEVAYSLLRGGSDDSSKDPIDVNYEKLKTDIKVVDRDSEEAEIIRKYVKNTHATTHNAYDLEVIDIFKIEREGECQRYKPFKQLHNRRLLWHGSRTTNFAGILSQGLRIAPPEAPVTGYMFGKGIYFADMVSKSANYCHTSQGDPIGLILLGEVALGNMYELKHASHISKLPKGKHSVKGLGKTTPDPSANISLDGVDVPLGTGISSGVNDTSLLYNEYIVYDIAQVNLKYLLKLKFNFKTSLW", "assay": "PARP1 activity in lysates of treated cells (chemiluminescent assay kit)", "type": "cell-based", "protocol": "The PARP1 activity was determined using the PARP1 Chemiluminscent Assay Kit (BPS Bioscience, San Diego) according to the manufacturer's protocol. Briefly, the ribosylation reaction was carried out with activated DNA in PARP assay buffer using test inhibitor, positive control, substrate control and blank reactions, for 1 hour at 25° C. Detection was by streptavidin-HRP with chemiluminescent substrate A and B read in a luminometer."}}}
{"molecule": "O=C(Nc1nc(-c2ccc(O)c(O)c2)c(-c2ccccc2)s1)c1ccc(O)c(O)c1", "note": "[COH29]", "values": [{"measurement": "IC50", "setting": "KB-Gem", "result": "7.5 ± 0.29", "unit": "µM"}, {"measurement": "IC50", "setting": "TOV112D", "result": "16 ± 2.08", "unit": "µM"}, {"measurement": "IC50", "setting": "[1]", "result": "< 10", "unit": "µM"}, {"measurement": "IC50", "setting": "HCC1937 + BRCA1", "result": "35 ± 3.63", "unit": "µM"}, {"measurement": "IC50", "setting": "SKBR3", "result": "13.28 ± 0.03", "unit": "µM"}, {"measurement": "IC50", "setting": "MCF-7", "result": "17.6 ± 1.54", "unit": "µM"}, {"measurement": "tumor size compared to vehicle controls", "setting": "HCC1937+BRCA1 tumors", "result": "not significantly smaller"}, {"measurement": "IC50", "setting": "MDA-MB-231", "result": "9.7 ± 1.52", "unit": "µM"}, {"measurement": "potency relative to HU", "setting": "[2]", "result": 20, "unit": "fold"}, {"measurement": "PARP1 activity, treated cells", "setting": "PARP1; HCC1937+BRCA1, 24 h, untreated 2336878 cps", "result": 2041097, "unit": "cps"}, {"measurement": "PARP1 activity, treated cells", "setting": "PARP1; HCC1937, 24 h, untreated 726177 cps", "result": 427851, "unit": "cps"}, {"measurement": "PARP1 activity, treated cells", "setting": "PARP1; UWB1.289+BRCA1, 8 h, untreated printed 145769 cps", "result": 2129944, "unit": "cps"}, {"measurement": "PARP1 activity, treated cells", "setting": "PARP1; UWB1.289, 8 h, untreated printed 113559 cps", "result": 774611, "unit": "cps"}]}
